We go through one compound from patent publication US4558068A, “Spirobenzofuranones and their use in treating peptic ulcers” (Takeda Chemical Industries, Ltd., priority 1983, dated 1985).

One series has as its system stress ulcer. The experiment in a line: Stress ulcer inhibiting effect, water immersion method (Takagi and Okabe). The format is in vivo. The following applies: rats, 50 mg/kg, i.p.; **: P < 0.05. From the text:
The stress ulcer inhibiting effect of the drug was investigated in rats in accordance with the water immersion method described by K. Takagi and S. Okabe, Jap. J. Pharmacol. 18, 9, 1968.

The next series relates to ICR mice. The experiment in a line: Acute oral toxicity, single administration, 7 days observation. The format is in vivo. The following applies: 500 mg/kg orally once.

For `O=C(O)C(O)c1ccc2c(c1)C(=O)C1(CC1)O2` (centres unmarked), the “% Inhibition (stress ulcer)” value in the series with stress ulcer turned out to be 56%. Also, the “death during observation period” value with ICR mice is reported as “no death was found”.
